This is an account of results in patent US20210128566A1, “NOVEL FUNCTIONALIZED PURINE-2,6-DIONES AND THEIR USE IN MEDICINE” (THOMAS HELLEDAYS STIFTELSE FÖR MEDICINSK FORSKNING, priority 2017, published 2021).

The target in the assay is recombinant human NUDT5 (Homo sapiens, UniProt Q9UKK9). Nature of the assay: NUDT5 inhibitor activity by malachite green reporter assay. It is filed as biochemical. The following applies: 6 nM NUDT5, 50 μM ADP-Ribose, 15 minutes at room temperature. The essentials:
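Coupled ADP-ribose hydrolysis in 10 mM Tris-acetate pH 8.0, 40 mM NaCl, 10 mM Mg acetate, 0.005% Tween-20, 1 mM DTT: 6 nM NUDT5, 50 μM ADP-Ribose, 10 U/ml alkaline phosphatase, 15 min at room temperature. Pi read by malachite green at 630 nm; compounds 100 μM–1.7 nM, 3-fold; IC50 by curve fit.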
(In general: A reporter such as luciferase makes a cellular process visible.)

A word on the IC50: it is the concentration that gives 50% inhibition. For the compound `COc1cccc(-c2nnc(Cn3c(Cl)nc4c3c(=O)n(C)c(=O)n4C)o2)c1` [Example 92, 8-chloro-7-{[5-(3-methoxyphenyl)-1,3,4-oxadiazol-2-yl]methyl}-1,3-dimethyl-2,3,6,7-tetrahydro-1H-purine-2,6-dione], the IC50 (Table 4) was 596 nM.

Take `Cn1c(=O)c2c(nc(N3CCNCC3)n2Cc2nnc(-c3ccc4cc[nH]c4c3)o2)n(C)c1=O` [Example 120, 7-{[5-(1H-indol-6-yl)-1,3,4-oxadiazol-2-yl]methyl}-1,3-dimethyl-8-(piperazin-1-yl)-2,3,6,7-tetrahydro-1H-purine-2,6-dione]: for the setting “Table 4”, the IC50 is 80.5 nM.

With `Cn1c(=O)c2c(nc(N3CCNCC3)n2Cc2nnc(-c3ccc(Cl)cc3)o2)n(C)c1=O` [Example 108, 7-{[5-(4-chlorophenyl)-1,3,4-oxadiazol-2-yl]methyl}-1,3-dimethyl-8-(piperazin-1-yl)-2,3,6,7-tetrahydro-1H-purine-2,6-dione], for the setting “Table 4”, the IC50 is 99 nM.

For `Cn1c(=O)c2c(nc(Cl)n2Cc2nnc(-c3ccccc3)o2)n(C)c1=O` [Example 88, 8-chloro-1,3-dimethyl-7-[(5-phenyl-1,3,4-oxadiazol-2-yl)methyl]-2,3,6,7-tetrahydro-1H-purine-2,6-dione], the IC50 (Table 4) turned out to be 3590 nM.

Consider `Cn1c(=O)c2c(nc(N3CC4CCCCC4C3)n2Cc2nnc(-c3ccc(Cl)c(Cl)c3)o2)n(C)c1=O` (centres unmarked) [Example 11, 7-{[5-(3,4-dichlorophenyl)-1,3,4-oxadiazol-2-yl]methyl}-1,3-dimethyl-8-(octahydro-1H-isoindol-2-yl)-2,3,6,7-tetrahydro-1H-purine-2,6-dione], for which the IC50 (Table 3) was found to be 84.6 nM.

In the case of `Cn1c(=O)c2c(nc(N3CCN(CCN)CC3)n2Cc2nnc(-c3ccc(Cl)c(Cl)c3)o2)n(C)c1=O` [Example 30, 8-[4-(2-aminoethyl)piperazin-1-yl]-7-{[5-(3,4-dichlorophenyl)-1,3,4-oxadiazol-2-yl]methyl}-1,3-dimethyl-2,3,6,7-tetrahydro-1H-purine-2,6-dione], the IC50 (Table 3) is 33.2 nM.

As to `Cn1c(=O)c2c(nc(N3CCNCC3)n2Cc2nnc(-c3cccc(F)c3)o2)n(C)c1=O` [Example 110, 7-{[5-(3-fluorophenyl)-1,3,4-oxadiazol-2-yl]methyl}-1,3-dimethyl-8-(piperazin-1-yl)-2,3,6,7-tetrahydro-1H-purine-2,6-dione], the IC50 (Table 4) came to 129 nM.

For the compound `CN(C)C1CCN(c2nc3c(c(=O)n(C)c(=O)n3C)n2Cc2nnc(-c3ccc(Cl)c(Cl)c3)o2)CC1` [Example 45, 7-{[5-(3,4-dichlorophenyl)-1,3,4-oxadiazol-2-yl]methyl}-8-[4-(dimethylamino)piperidin-1-yl]-1,3-dimethyl-2,3,6,7-tetrahydro-1H-purine-2,6-dione], under “Table 3”, the IC50 came to 14.9 nM.

Consider `CCN1CCN(c2nc3c(c(=O)n(C)c(=O)n3C)n2Cc2nnc(-c3cccc(C)c3)o2)CC1` [Example 55, 8-(4-ethylpiperazin-1-yl)-1,3-dimethyl-7-{[5-(3-methylphenyl)-1,3,4-oxadiazol-2-yl]methyl}-2,3,6,7-tetrahydro-1H-purine-2,6-dione], for which, for the setting “Table 3”, the IC50 was found to be 221 nM.

`CC1CN(c2nc3c(c(=O)n(C)c(=O)n3C)n2Cc2nnc(-c3ccc(Cl)c(Cl)c3)o2)CC(C)N1` (centres unmarked) [Example 29, 7-{[5-(3,4-dichlorophenyl)-1,3,4-oxadiazol-2-yl]methyl}-8-(3,5-dimethylpiperazin-1-yl)-1,3-dimethyl-2,3,6,7-tetrahydro-1H-purine-2,6-dione]: where the note is “Table 3”, the IC50 came out at 43.8 nM.

In the case of `COc1ccc(CNc2nc3c(c(=O)n(C)c(=O)n3C)n2Cc2nnc(-c3ccc(Cl)c(Cl)c3)o2)c(OC)c1` [Example 86, 7-{[5-(3,4-dichlorophenyl)-1,3,4-oxadiazol-2-yl]methyl}-8-{[(2,4-dimethoxyphenyl)methyl]amino}-1,3-dimethyl-2,3,6,7-tetrahydro-1H-purine-2,6-dione], the IC50 (Table 4) was found to be 184 nM.
